Measured values: patent publication US20130203647A1, “DELIVERY OF H[…]” (UNIVERSITY COLLEGE LONDON, priority 2010, published 2013)
Non-standard residues stand in square brackets, D forms with d. Residues, ends and D or L forms follow the SMILES beside them. ξ: configuration not given here. *: point of attachment. Palmitoyl = CCCCCCCCCCCCCCCC(=O)*; ξY = NC(Cc1ccc(O)cc1)C(=O)O; ξR = N=C(N)NCCCC(N)C(=O)O; ξF = NC(Cc1ccccc1)C(=O)O; ξL = CC(C)CC(N)C(=O)O

Tests used:
[1] = Pharmacokinetics: brain levels after intravenous administration (UPLC-MS/MS); assay type: in vivo; details: ICR (CD-1) mice, dalargin dose of 30 mg kg-1, FIG. 1
Experimental: (§1) ICR (CD-1) male out bred mice (18-24 g, 4 weeks old, Harlan, Oxon, UK) were used for the pharmacokinetics evaluations while ICR (CD-1) male out bred mice (22-28 g, 4-5 weeks old) were used for the pharmacodynamics evaluations. The animals were housed in groups of 5 in plastic cages in controlled laboratory conditions with ambient temperature and humidity maintained at ˜22° C. and 60% respectively with a 12-hour light and dark cycle (lights on at 7:00 and off at 19:00). Food and water were available ad libitum and the animals acclimatised for 5-7 days prior to any experiments in the Animal House, School of Pharmacy, University of London (London, UK). Animals were only used once and were acclimatised in the testing environment for at least 1 hour prior to testing. […]
Groups (n=5) of animals were administered either: NaCl (0.9% w/v), Dalargin, Dalargin-GCPQA, pDal and pDal-GCPQA. […] At various time points, animals were killed and their brain, liver and plasma analysed. […]
Brain and Liver were immediately frozen in liquid Nitrogen after being taken from the mouse. […] The brain and liver weights were determined and 2 mL water per g of brain was added to each (equivalent to 2 g of solvent to 1 g of brain). […]

[2] = tested on: mice; assay: Tail flick warm water bioassay (anti-nociception); assay type: in vivo; details: ICR (CD-1) mice, intravenous, dalargin dose of 15 mg kg-1, water at 55° C., FIG. 2
Experimental: as §1, with “UK).” for “UK). Animals were only used once and were acclimatised in the testing environment for at least 1 hour prior to testing.”
Anti-nociception was assessed in mice using the tail flick warm water bioassay (17, 18). […] The response latency times, in centiseconds, recorded for each mouse to withdraw its tail by a “sharp flick” were recorded using a digital stopwatch capable of measuring 1/100th of a second. […]
Two separate withdrawal latency determinations (separated by ≧20 sec) were averaged. […] Mice not responding within 5 sec were excluded from further testing (Baseline cut-off=5 seconds) and the baseline latency was measured for all mice 2 hours prior testing. […] Briefly, percent antinociception was calculated as 100%×(test latency-baseline latency)/(10 seconds-baseline latency). […]

Molecule | Detection in the brain (brain levels) [1] | Antinociceptive effect (% of Maximum Possible Effect, tail flick) [2]
CCCCCCCCCCCCCCCC(=O)Oc1ccc(CC(N)C(=O)N[C@H](C)C(=O)NCC(=O)NC(Cc2ccccc2)C(=O)NC(CC(C)C)C(=O)NC(CCCNC(=N)N)C(=O)O)cc1 (stereo partly drawn) [pDal, Palmitoyl Dalargin] (H-[ξY](Palmitoyl)[dA]G[ξF][ξL][ξR]-OH) | detected in the brain | –
Dalargin | not detected in the brain | unable to exert an antinociceptive effect
